Source: PubChem BioAssay (NCI)
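Cells were grown in 96-well plates and exposed to each compound for 48 hours at five concentrations; endpoints were interpolated linearly between bracketing concentrations, or set to the highest concentration if not reached. GI50 is the concentration that inhibits growth by half. TGI: total growth inhibition.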 Peptide text beside a SMILES is read from it. * marks the point of attachment. Boc = CC(C)(C)OC(=O)*; OBn = c1ccc(CO*)cc1

Columns and labels:
Experiment in all cases: inhibition of tumour cell growth, NCI panel, 48 h
DU-145 prostate = system: DU-145 prostate
RPMI-8226 leukemia = system: RPMI-8226 leukemia
SF-268 CNS = system: SF-268 CNS
NCI-H460 lung = system: NCI-H460 lung
SW-620 colon = system: SW-620 colon

| Structure (SMILES) | TGI (DU-145 prostate) [µM] | TGI (RPMI-8226 leukemia) [µM] | TGI (SF-268 CNS) [µM] | TGI (NCI-H460 lung) [µM] | TGI (SW-620 colon) [µM] | GI50 (RPMI-8226 leukemia) [µM] | GI50 (SF-268 CNS) [µM] | GI50 (SW-620 colon) [µM] |
| --- | --- | --- | --- | --- | --- | --- | --- | --- |
| CN(C)CCCCN1c2ccccc2Sc2cc(N=[N+]=[N-])ccc21 | 3.8 | 6.06 | 4.62 | 3.83 | 3.56 |  |  |  |
| CCOC(=O)C1C(c2ccc(OC)cc2)c2c([nH][nH]c2=O)CC1(O)OCC (stereo not drawn) | > 100 | > 100 | > 100 | > 100 | > 100 |  |  |  |
| COC(=O)C1=C(\c2ccccc2)c2ccccc2C(=O)N(C2CCCCC2)/C=C\1 | > 100 |  | > 100 | 65.7 | > 100 |  |  |  |
| COc1ccc2cc(/C=N\NC(=O)Nc3cccc4ccccc34)ccc2c1 | > 100 |  | > 100 | 86.4 | > 100 |  |  |  |
| NC(=O)C(c1ccccc1)N1OC2C(=O)N(c3cccc4ccccc34)C(=O)C2C1c1c2ccccc2c(Cl)c2ccccc12 (stereo not drawn) | 46.6 |  | 25.1 | 18.6 | > 50 |  |  |  |
| Cn1c(Nc2ccccc2)c(C=Nc2ccccc2)c(=O)n(C)c1=O | > 100 | > 100 | > 100 | > 100 | > 100 |  |  |  |
| CN(C)C(=O)Nc1cc2c3c(c1)CCCN3CCC2 | > 10 | > 10 | > 10 | > 10 | > 10 |  |  |  |
| O=c1c2cccnc2cc(-c2ccccc2)n1CCO | > 100 | > 100 | > 100 | > 100 | > 100 |  |  |  |
| [N-]=[NH+]CC(=O)OC(COCc1ccccc1)COCc1ccccc1 | > 100 | > 100 | > 100 | > 100 | > 100 |  |  |  |
| O=c1[nH]c(=S)[nH]n1C(=S)n1[nH]c(=S)[nH]c1=O | > 100 | > 100 | > 100 | > 100 | > 100 |  |  |  |
| COc1cccc2c(Nc3ccc(S(=O)(=O)NC(C)=O)cc3)c3ccc([N+](=O)[O-])cc3nc12 | > 100 | > 100 | > 93.7 | > 100 | > 79.8 |  |  |  |
| COC1=C(N2CC2)C(=O)c2nc3n(c2C1=O)CCC3 | 1.36 | 0.336 | 5.23 | 2.42 | 2.19 |  |  |  |
| Nc1cn(Cc2ccccc2)c2nc(/C=C3/C=CC=CC3=O)c(O)n12 | > 100 | > 100 | > 100 | > 100 | > 100 |  |  |  |
| COC(=O)c1ccccc1/C=C1\Cc2cc(C)cc(C)c2C1=O | > 100 | > 100 | > 100 | > 100 | > 100 |  |  |  |
| CC(NC(=O)CNC(=O)OC(C)(C)C)C(=O)NC(Cc1ccccc1)C(=O)OCc1ccccc1 (stereo not drawn) (Boc-Gly-Ala-Phe-OBn; configuration not given here) | > 100 |  | > 100 |  | > 100 |  |  |  |
| Cc1ccc(S(=O)(=O)NC2C(=O)c3ccccc3C(=O)C2n2cnc3ccccc32)cc1 (stereo not drawn) | > 100 | > 100 | > 100 | 84.3 | 94.4 |  |  |  |
| COc1cc(C2C3=C(COC3=O)Oc3cc4c(cc32)OCO4)ccc1OC(C)=O (stereo not drawn) | > 100 | > 100 | > 59.5 | > 100 | > 100 |  |  |  |
| CCOC(=O)C(NC(=O)CC(C)C)(Nc1ccc(S(=O)(=O)Nc2nc(C)cc(C)n2)cc1)C(F)(F)F (stereo not drawn) | > 100 | > 100 | > 100 | > 100 | > 100 |  |  |  |
| Cc1cc(NCCCCCCCCCC[n+]2c(C)cc(N)c3ccccc32)c2ccccc2n1 | 22.3 | 2.28 | > 39 |  | 21.2 |  |  |  |
| COc1ccc(C(c2c[nH]c3ccc(Br)cc23)c2c[nH]c3ccc(Br)cc23)cc1 | 1.38 | 0.543 | 0.631 | 0.361 | 1.1 |  |  |  |
| O=C(CCc1ccc(O)cc1)NCCc1cccc(OCc2ccccc2)c1 | > 100 |  | > 100 | 66.6 |  |  |  |  |
| Fc1ccccc1-c1nn2c(C34CC5CC(CC(C5)C3)C4)nnc2s1 | > 100 | > 100 | > 100 | > 100 | > 100 |  |  |  |
| CCCCCC(CO)C(O)(C(F)(F)F)C(F)(F)F (stereo not drawn) | > 10 | > 10 | > 10 | > 10 | > 10 |  |  |  |
| C=C1CC(C)(COc2ccc3ccc(=O)oc3c2)OC1=O (stereo not drawn) | 12.5 | 4.7 | 33.5 | 22.9 | 4.79 |  |  |  |
| COc1cc(Nc2cnc3cc(F)c(F)cc3n2)cc(OC)c1 | > 100 |  | > 100 | > 100 | > 100 |  |  |  |
| CC1(C)CCCCCCC2OC2CCCCCC(C)(C)C1=O (stereo not drawn) | > 100 | > 95 | > 100 | > 100 | > 100 |  |  |  |

| Structure (SMILES) | TGI (DU-145 prostate) [µM] | TGI (RPMI-8226 leukemia) [µM] | TGI (SF-268 CNS) [µM] | TGI (NCI-H460 lung) [µM] | TGI (SW-620 colon) [µM] | GI50 (RPMI-8226 leukemia) [µM] | GI50 (SF-268 CNS) [µM] | GI50 (SW-620 colon) [µM] |
| --- | --- | --- | --- | --- | --- | --- | --- | --- |
| Cc1ccc(SCC(CF)OCn2cc(F)c(=O)[nH]c2=O)cc1 (stereo not drawn) | > 100 | > 100 | > 100 | > 100 | > 100 |  |  |  |
| CCSC1=N/C(=C\c2ccco2)C(Cl)=N1 | > 100 | > 100 | > 100 | > 100 | > 100 |  |  |  |
| CCN(CC)C(=S)SNCc1ccc(S(N)(=O)=O)cc1 | 33.4 | 22.8 | 26.7 | 34.4 | > 50.1 |  |  |  |
| CCCCCCCCCCCCC(O)C1CCC(C(O)CCCCCCC(O)CCCCCCCC2=CC(C)OC2=O)O1 (stereo not drawn) |  | 22.3 | > 100 | > 100 | > 100 | 2.05 | 41.2 | 45.8 |
| O=C1CCC2CCC1C2 (stereo not drawn) | > 100 | > 100 | > 100 | > 100 |  |  |  |  |
| CCOP(=O)(OCC)c1ccc(=O)[nH]c1-c1cccs1 | > 100 | > 100 | > 100 | > 100 | > 100 |  |  |  |
| N#Cc1c(Cl)c2ccccc2n2c1nc1ccccc12 | 80.4 | 72.7 | 83.7 | > 100 | > 100 |  |  |  |
| COc1ccc(C2=C(N)c3c(OC)cccc3C2=O)cc1 | > 100 | > 100 | > 100 | > 100 | > 100 |  |  |  |
| O=C1c2c(ccc3c2CCC3)CC12Cc1cc3c(cc1C2)CCC3 | > 100 | > 100 | > 100 | > 100 | > 100 |  |  |  |
| CSC1=N/C(=C\c2ccco2)C(=O)N1CN1CCCCC1 | > 100 | > 100 | > 100 |  | > 100 |  |  |  |
| CCCCCCCCC/C=C1\CC(CO)(COC(=O)C2CCCCC2)OC1=O (stereo not drawn) | 21.5 |  | 46.7 | 57.1 | 33.1 |  |  |  |
| C=C(Br)CN(C(C)=O)C1CCCCC1 | > 100 | > 100 | > 100 | > 100 | > 100 |  |  |  |
| NC(N)=N/N=C/c1c(-c2ccc([N+](=O)[O-])cc2)nc2n1CCS2 | 28.1 | > 63.3 | 25.4 | 32.3 | 7.33 |  |  |  |
| COc1cc(C2c3cc4c(cc3OC(Nc3ccccc3)C2C)OCO4)cc(OC)c1OC (stereo not drawn) | > 100 | > 100 | > 100 | > 100 | > 100 |  |  |  |
| O=C(O)c1ccccc1C(=O)Nn1cnnc1 | > 100 | > 100 | > 100 |  | > 100 |  |  |  |
| O=C(O)c1ccc2c(c1)CC1(C2)Cc2ccccc2C1=O (stereo not drawn) | > 100 | > 100 | > 100 | > 100 | > 100 |  |  |  |
| COc1cc(NP(=O)(Oc2ccccc2)Oc2ccccc2)ccc1Nc1c2ccccc2nc2c1[nH]c1ccccc12 | 1.56 |  | > 100 | 29.2 | 12.9 |  |  |  |
| COc1ccc(NC(C)=O)cc1C1CCC(=O)N1 (stereo not drawn) | > 100 | > 100 | > 100 | > 100 | > 100 |  |  |  |
| N#Cc1sc2c(c1OC(=O)c1cccs1)c(=O)n(-c1ccccc1)c(=S)n2-c1ccccc1 | > 100 | 49.6 | 86 | > 100 | 84.6 |  |  |  |
| COC(=O)C1=Cc2cc(OC)c(O)cc2[C@@H](c2ccc(O)c(OC)c2)[C@@H]1C(=O)OC | > 100 | > 100 | > 100 | > 100 | > 100 |  |  |  |
| CC(=O)N(CCc1ccccc1)C(C#N)c1ccc(OCCCCCCCCCCOc2ccc(C(C#N)N(CCc3ccccc3)C(C)=O)cc2)cc1 (stereo not drawn) | > 100 |  | 59.7 | > 100 | > 100 |  |  |  |
| COc1cc(NCc2ccc3nc(OC)c(OC)nc3c2)cc(OC)c1OC | > 100 |  | > 100 | > 100 | > 100 |  |  |  |
| CN(C(=O)Cc1ccc(Cl)c(Cl)c1)[C@@H]1CCCC[C@H]1[N+]1(C)CC=CC1 | > 100 | > 100 | > 100 |  | > 100 |  |  |  |
| N#CC(Nc1ccccc1)c1ccc(C(C#N)Nc2ccccc2)cc1 (stereo not drawn) | > 100 |  | > 100 | > 100 | > 100 |  |  |  |
| O=C1c2ccccc2-c2ccc(N=Nc3c(O)ccc4ccccc34)cc21 | > 100 | > 100 | > 100 |  | > 100 |  |  |  |
